Data set [1] relates to SK-OV-3 ovarian cancer cells. The experiment in a line: SRB cell viability assay, SK-OV-3. It counts as cell-based. Particulars: Homo sapiens, SK-OV-3, Ovary. The method, then: (§1) The effect of OSC inhibition was evaluated in additional cancer cell lines as well. Cancer cell lines may be purchased from ATCC (Manassas, Va.). The SRB assay has been employed for determination of the inhibitory effects of RO 48-8071 on growth of different cancer cells. Cells were seeded into 96-well plates and incubated overnight at 37° C. with 5% CO2. The culture medium was removed after 24 hours, and cells were washed with DMEM/F12 medium and then treated with various concentrations of RO 48-8071 in 5% FBS culture medium for 24 and 48 hours. Surviving or adherent cells were fixed in situ by withdrawing the growth medium, adding 100 μl PBS and 100 μl 50% trichloroacetic acid and then incubating at 4° C. for one hour. Cells were washed with ice-cold water, dried at room temperature (RT), and then stained with 50 μl 4% SRB for eight minutes at RT. Unbound dye was removed by washing with cold 1% acetic acid for five times, and plates were dried at RT. Bound stain was solubilized with 150 μl 10 mM Tris buffer and absorbance of samples was read at 520 nm with a SpecTRA MAX 190 microplate reader (Molecular Devices, Sunnyvale, Calif.). Six wells were used for each concentration, and each experiment was performed two to three times.
Effect of RO 48-8071 on ovarian cancer cell line SK-OV-3 viability. […]

For data set [2], the system named is OV-CAR-3 ovarian cancer cells. Put plainly: SRB cell viability assay, OV-CAR-3. It counts as cell-based. The conditions noted are these: Homo sapiens, OVCAR-3, OV-CAR-3, Ovary. The method, then:
as §1
Effect of RO 48-8071 on ovarian cancer cell line OVCAR-3 viability. […]

The test system of data set [3] is normal mammary AG11132A cells. Put plainly: SRB cell viability assay, normal mammary cells. It is filed as cell-based. Particulars: 24 hours, FIG. 3. The protocol: The sulforhodamine B (SRB) assay was employed to evaluate the effect of OSC inhibitor Ro 48-8071 on viability of breast cancer and normal mammary gland cells with slight modification of the original procedure established at NCI. Accordingly, the cells were seeded in 96-well plates in 100 μl culture medium and incubated overnight at 37° C. with 5% CO2. […] The surviving or adherent cells were fixed in situ by withdrawing the growth medium and adding 100 μl of PBS and 100 μl of 50% cold trichloroacetic acid and then incubating at 4° C. for 1 h. The surviving cells were washed with ice-water, dried at room temperature (RT), and then stained with 50 μl 4% SRB for 8 min at RT. Unbound dye was removed by washing 5 times with cold 1% acetic acid, and the plates were dried at RT. Bound stain was solubilized with 150 μl 10 mM Tris buffer, and absorbance of samples were measured at 520 nm with a SpecTRA MAX 190 microplate reader (Sunnyvale, Calif.). In these experiments on BT-474, T47-D, and AG11132A cell lines, six wells were used for each concentration, and each experiment was performed at least twice.

Data set [4] deals with HCC-1428 breast cancer cells. Put plainly: SRB cell viability assay, HCC-1428. Particulars: Homo sapiens, HCC1428, HCC-1428, Breast (ER+ PR+). It is filed as cell-based. The protocol:
as §1
(§2) Effect of RO 48-8071 on estrogen, progesterone, and HER-2/neu receptors positive breast cancer cell line HCC-1428 and ZR-75 viability. […]

Data set [5] has as its system BT-474 human breast cancer xenograft. Put plainly: BT-474 breast tumor xenograft in nude mice. The method, then: Female athymic nu/nu nude mice, 5 to 6 weeks-old (18-22 g) were purchased from Harland Sprague-Dawley, Inc. Nude mice were inoculated with 17-β-Estradiol pellets (1.7 mg/pellet, 60 days release) 48 hours before inoculating tumor cells. BT-474 human breast cancer cells, 5×10^6 in 0.15 ml solution mixed with matrigel and DMEM/F12 medium (4/1, v/v) were injected into each flank of mouse subcutaneously and both flanks of each mouse were injected. When tumor volume reached around 100 mm3, animal were randomly assigned to three groups and the treatment started with RO 48-8071 (5 mg/kg/day or 10 mg/kg/day) via tail-vein injection for five days, followed by same treatment every other day for five additional times as shown in the FIG. 13A. Animals in control group received the vehicle alone under identical conditions. Tumor volumes were measured by a digital caliper and calculated using the formula (L×W×H)×0.5236.
Animal weight was monitored throughout the experiment.

Data set [6] relates to DLD-1 colon cancer cells. Put plainly: SRB cell viability assay, DLD-1. It counts as cell-based. Particulars: Homo sapiens. The method, then: as §1
Effect of RO 48-8071 on colon cancer cell line DLD-1 viability. […] The culture mediums employed 10% FBS RPMI-1640 for culture and 5% FBS RPMI-1640 for treatment.

Data set [7] relates to ZR-75 breast cancer cells. The experiment in a line: SRB cell viability assay, ZR-75. It is filed as cell-based. The conditions noted are these: ZR75, ZR-75, Breast (ER+ PR+). The protocol: as §1, §2
For data set [8], the system named is DU145 prostate cancer cells. The experiment in a line: SRB cell viability assay, DU145. It is filed as cell-based. Particulars: Homo sapiens. The protocol: as §1
Effect of RO 48-8071 on prostate cancer cell line DU145 viability. […] The culture mediums employed 10% FBS EMEM for culture and 5% FBS EMEM for treatment.

Data set [9] deals with MDA-231 breast cancer cells. Put plainly: SRB cell viability assay, MDA-231. It counts as cell-based. Particulars: Homo sapiens, MDA-MB-231, MDA-231, Breast (triple negative). The method, then: as §1
Effect of RO 48-8071 on estrogen, progesterone, and HER-2/neu receptors negative breast cancer cell line MDA-231 and BT-20 viability. […]

[10] abbreviates: 24 hours, read-out: IC50 (μM) (24 hours).
The mark [11] stands for this setting: 48 hours, read-out: IC50 (μM) (48 hours).

Structures can show the parent of a compound that is named as a salt. Where two headings read alike, the source gives them in different places.

As a reminder, the IC50 is the point on the concentration scale where inhibition reaches its midpoint.

As to `C=CCN(C)CCCCCCOc1ccc(C(=O)c2ccc(Br)cc2)c(F)c1` [Ro 48-8071, 4′-[6-(Allylmethylamino)hexyloxy]-4-bromo-2′-fluorobenzophenone fumarate], the IC50 in data set [1] (setting [10]) stood at 18.3 ± 0.639 µM; in [1] (setting [11]) it was 12.7 ± 0.521 µM; in data set [2] (setting [10]), 20.5 ± 0.325 µM; in data set [2] (setting [11]) it was 11.3 ± 0.33 µM; in data set [4] (setting [10]), 14.6 ± 0.417 µM; in [4] (setting [11]) it was 11.6 ± 0.336 µM. For the same molecule, the IC50 in data set [6] (setting [10]) turned out to be 11.5 ± 0.243 µM; in [6] (setting [11]) it was 6.92 ± 0.41 µM; in data set [7] (setting [10]) it was 11 ± 0.289 µM; in data set [7] (setting [11]) it was 7.63 ± 0.304 µM; in data set [8] (DU-145, 24 hours, read-out: IC50 (μM) (24 hours)), 13.5 ± 0.895 µM; in data set [8] (DU-145, 48 hours, read-out: IC50 (μM) (48 hours)), 8.61 ± 0.455 µM. Further, the half-maximal inhibitory concentration (IC50) in [9] (setting [10]) is 15 ± 0.482 µM; in [9] (setting [11]) it was 10.7 ± 0.276 µM. Moreover, the “inhibition of normal mammary cell viability compared with BT-474” value in [3] is listed as “significantly less inhibition”. Moreover, the “tumor volume versus control group” value in data set [5] (5 or 10 mg/kg/day, tail-vein injection, P<0.05 ANOVA, FIG. 13A) is on record as “Significant differences were observed compared with control group”. Besides, in [5] (BT-474 tumor-bearing nude mice), the “toxicity at doses used for inhibiting tumor growth” value was “non-toxic”. For the same molecule, in [5] (BT-474 tumor-bearing nude mice, FIG. 13B), the “animal weight, control versus treated groups” value is “No significant difference”.

The record behind these values is patent US10143686B2, “Oxidosqualene cyclase as a protein target for anticancer therapeutics” (The Curators of the University of Missouri, priority 2010, dated 2018).
